Earlier results as cited in patent US10039775B2, “Preparation method for antitumor drug AP26113” (SUZHOU MIRACPHARMA TECHNOLOGY CO., LTD., priority 2015, dated 2018).

How the values were obtained:
[1] = test system: ALK positive nonsmall cell lung cancer; conditions: clinical data; patients with ALK positive nonsmall cell lung cancer, including brain metastases patients
ALK = ALK (Homo sapiens, UniProt Q9UM73); conditions: ratio versus crizotinib
[2] = test system: crizotinib resistant ALK mutation; conditions: nine identified crizotinib resistant ALK mutations

Chain of ALK (Q9UM73 19-1620): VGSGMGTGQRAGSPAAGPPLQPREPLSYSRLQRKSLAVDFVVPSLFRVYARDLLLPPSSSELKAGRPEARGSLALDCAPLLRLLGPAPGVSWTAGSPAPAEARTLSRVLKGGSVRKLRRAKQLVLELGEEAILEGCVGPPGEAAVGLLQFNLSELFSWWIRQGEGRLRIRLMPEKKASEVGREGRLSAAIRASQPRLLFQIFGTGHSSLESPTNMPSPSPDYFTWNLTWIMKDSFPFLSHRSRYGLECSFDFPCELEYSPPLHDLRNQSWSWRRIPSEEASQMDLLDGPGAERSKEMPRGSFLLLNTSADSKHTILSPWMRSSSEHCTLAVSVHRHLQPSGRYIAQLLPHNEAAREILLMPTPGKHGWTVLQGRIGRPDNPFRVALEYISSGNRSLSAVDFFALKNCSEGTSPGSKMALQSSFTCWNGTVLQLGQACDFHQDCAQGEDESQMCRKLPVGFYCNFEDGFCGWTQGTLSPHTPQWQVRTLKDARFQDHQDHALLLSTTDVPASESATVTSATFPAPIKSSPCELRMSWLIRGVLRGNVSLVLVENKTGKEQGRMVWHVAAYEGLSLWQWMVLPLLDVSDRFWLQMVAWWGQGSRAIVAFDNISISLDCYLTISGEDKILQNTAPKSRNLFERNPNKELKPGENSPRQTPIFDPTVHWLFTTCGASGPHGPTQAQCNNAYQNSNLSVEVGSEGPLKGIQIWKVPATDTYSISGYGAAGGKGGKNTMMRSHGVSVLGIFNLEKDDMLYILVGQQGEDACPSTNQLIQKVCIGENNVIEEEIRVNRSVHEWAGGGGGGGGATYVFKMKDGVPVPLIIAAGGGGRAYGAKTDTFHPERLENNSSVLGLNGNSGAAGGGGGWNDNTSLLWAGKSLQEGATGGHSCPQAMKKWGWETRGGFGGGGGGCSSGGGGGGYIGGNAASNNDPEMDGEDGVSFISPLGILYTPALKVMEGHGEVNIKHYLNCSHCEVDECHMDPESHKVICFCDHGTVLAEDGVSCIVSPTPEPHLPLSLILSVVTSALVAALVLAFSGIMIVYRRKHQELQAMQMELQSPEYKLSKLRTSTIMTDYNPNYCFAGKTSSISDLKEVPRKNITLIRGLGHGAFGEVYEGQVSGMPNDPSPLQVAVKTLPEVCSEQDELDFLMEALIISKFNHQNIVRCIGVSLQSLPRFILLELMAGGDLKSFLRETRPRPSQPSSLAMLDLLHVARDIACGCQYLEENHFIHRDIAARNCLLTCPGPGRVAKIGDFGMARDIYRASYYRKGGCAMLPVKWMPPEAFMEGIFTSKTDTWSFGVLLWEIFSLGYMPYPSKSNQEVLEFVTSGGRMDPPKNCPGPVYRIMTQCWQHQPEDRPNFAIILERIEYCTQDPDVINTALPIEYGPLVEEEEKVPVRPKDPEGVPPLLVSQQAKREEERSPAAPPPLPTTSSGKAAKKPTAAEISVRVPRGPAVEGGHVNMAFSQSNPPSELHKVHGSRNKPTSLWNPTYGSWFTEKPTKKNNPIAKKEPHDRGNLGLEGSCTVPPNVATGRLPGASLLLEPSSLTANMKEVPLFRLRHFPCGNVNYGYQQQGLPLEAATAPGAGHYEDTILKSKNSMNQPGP

inhibitory activity to ALK relative to the inhibitor activity of crizotinib to ALK (ALK): about 10 times
SMILES: COc1cc(N2CCC(N(C)C)CC2)ccc1Nc1ncc(Cl)c(Nc2ccccc2P(C)(C)=O)n1 [AP26113, 5-chloro-N2-[4-[4-(dimethylamino)-1-piperidyl]-2-methoxyphenyl]-N4-[2-(dimethyl phosphitylate)phenyl]-2,4-diaminopyrimidine]
anti-tumor activity on patients [1]: continuous anti-tumor activity
inhibition of all nine identified crizotinib resistant ALK mutation [2]: can be inhibited
